According to patent publication US20040013643A1, “Methods for treatment of multiple sclerosis with statins” (Novlmmune S.A., priority 2000, published 2004):
Entries after “also recorded” stand apart in the source; their conditions may differ.

How the values were obtained:
MHC class II = settings: Atorvastatin, Lovastatin, Pravastatin compared; FIG. 1a
Method: Cell isolation and culture. […] Flow cytometry. […] Data were analyzed using […] software (Becton Dickinson).

CD40 = test: IFN-γ induced CD40 expression on human vascular endothelial cells (Western blot, FACS); assay type: cell-based; settings: ECs
Method: Cell isolation and culture. Human vascular endothelial cells (ECs) were isolated from saphenous veins and mammary arteries by collagenase treatment (Worthington Biochemicals), and cultured in dishes coated with gelatin (Difco). Cells were maintained in medium 199 (1 4199; BioWhittaker) supplemented with 100 U/ml penicillin/streptomycin (BioWhittaker), 5% FCS (Gibco), 100 μg/ml heparin (Sigma) and 50 μg/ml ECGF (endothelial cell growth factor; Pel-Freez Biological). Human vascular smooth muscle (SMCs) cells were isolated from human saphenous veins and mammary arteries by explant outgrowth, and cultured in DMEM (BioWhittaker) supplemented with 1% L-glutamine (BioWhittaker), 1% penicillin/streptomycin, and 10% FCS. Both cell types were subculture following trypsinization (0.5% trypsin (Worthington Biochemicals)/0.2% EDTA (EM Science)) in P100-culture dishes (Becton Dickinson). Culture media and FCS contained less than 40 pg LPS/ml as determined by chromogenic Limulus amoebocyte-assay analysis (QLC1000; BioWhittaker).
Western blot analysis. Cells were harvested in ice-cold RIPA solubilization buffer, and total amounts of protein were determined using a bicinchoninic acid quantification assay (Pierce, Rockford, Ill.). Twenty μg of total protein/lane were separated by SDS/PAGE under reducing conditions and blotted to polyvinylidene difluoride membranes (Millipore Corp, Bedford, Mass.) using a semidry blotting apparatus (Bio-Rad, Hercules, Calif.). Blots were blocked overnight in 5% defatted dry milk/PBS/0.1% Tween, and then incubated for 1 hour at room temperature with primary antibody (1:40) (rabbit polyclonal anti-CD40 Santa Cruz, San Diego, Calif.), or mouse monoclonal anti-human P-actin (1:5000) (Phanningen) for control of loading. This was followed by a 1 hour incubation with secondary peroxidase-conjugated antibody (1:10′000), (Jackson Immunoresearch, West Grove, Pa.). All steps were performed at room temperature and in between incubation steps cells were rinsed with PBS/0.1% Tween. lmmunoreactivity was detected using the enhanced chemiluminescence detection method according to the manufacturer's instructions. (Amersharn, Ddbendorf, Switzerland), and subsequent exposure of the membranes to x-ray film. Analysis of quantification of detection was performed using AIDA software.
Flow cytometry. Cells were incubated with FITC-conjugated specific antibody (60 min, […]) and analyzed in a Becton Dickinson FACScan flow cytometer. At least 20.000 viable cells were analyzed per condition. Data were analyzed using […] software (Becton Dickinson).
Surface CD40 expression was analyzed by […] after 24 hrs.

CD40 mediated pathways = test: Cytokine release (MCP-1, IL-6, IL-8) from endothelial cells activated by CD40L, ELISA; assay type: cell-based, human; settings: ECs; CD154 stimulation with statin; L-mevalonate added
Method: Cytokines assay. […] Experiments were performed in the presence of polymyxin B (1 μg/ml). Antibody binding was detected by adding substrate (R&D), and absorbance measured at 450 nm using a Dynatech plate reader. The amount of IL-6, IL-8 and MCP-I detected was calculated from a standard curve prepared with the recombinant protein. Samples were assayed in duplicates.
To investigate the functional consequences of inhibition of CD40 expression by statins on Endothelial Cells activation by CD40L, secreted cytokines were analyzed such as Interleukin-6 (IL-6), interleukin-8 (IL-8), macrophages chemoattractant protein-1 (MCP-1).

For `CC(C)c1c(C(=O)Nc2ccccc2)c(-c2ccccc2)c(-c2ccc(F)cc2)n1CC[C@@H](O)C[C@@H](O)CC(=O)O` [Atorvastatin], the “relative potency as MHC class II repressor among the forms tested” value (MHC class II) was “most powerful MHC class II repressor”, the “IFN-γ induced CD40 expression” value (CD40; IFN-γ 500 U/ml, 24 hrs) was “repressed this induction of CD40 in a dose-dependant manner; also recorded: decreases IFN-γ induced CD40 protein expression on human atheroma-associated cells in a dose-dependant manner” and the “concentration range over which the effect on IFN-γ induced CD40 was observed” value (CD40; IFN-γ 500 U/ml, 24 hrs, FIG. 7) was 0.08 to 0.5 µM. For the same compound, the “IFN-γ induced CD40 expression” value (CD40; IFN-γ 500 U/ml, 24 hrs, listed as atorvastatin) was “decreased”, the “effect on IFN-γ induced CD40 in the presence of L-mevalonate” value (CD40; with L-mevalonate) was “markedly reduced” and the “CD40 expression, treatment with statin alone” value (CD40; without IFN-γ) was “had an effect on CD40 expression”.

`CC[C@H](C)C(=O)O[C@H]1C[C@@H](C)C=C2C=C[C@H](C)[C@H](CC[C@@H]3C[C@@H](O)CC(=O)O3)[C@H]21` [Lovastatin] was tested, and the “IFN-γ induced CD40 expression” value (CD40; IFN-γ 500 U/ml, 24 hrs) was “decreased”.

For L-mevalonate, the “reversal of the statin effect by addition of L-mevalonate” value (CD40 mediated pathways) was “significantly reverses the process”.
